Residues, ends and D or L forms follow the SMILES beside them. *: point of attachment. Cbz = O=C(OCc1ccccc1)*

These results are taken from patent US8512964B2, “Targets for treatment of hypercholesterolemia” (The Regents of the University of California, priority 2008, dated 2013).

In assay [1] the test system is LDLR. Put plainly: Immunoblot of LDLR protein in immortalized Lxrαβ(−/−) MEFs stably expressing LXRα or vector control. As to conditions: Lxrαβ(−/−) MEFs with LXRα or vector control, sterol depletion medium, FIG. 1E. The assay is classed as cell-based, mouse. The procedure: The cell lines HEK293T, HepG2, and SV589 were obtained from ATCC. HEK293T were cultured in Optimem containing 2% FBS. HepG2 and SV589 were cultured in DMEM supplemented with 10% FBS. immortalized Lxrαβ^(−/−) mouse embryonic fibroblasts (MEFs) were obtained by immortalizing E13.5 MEFs with a SV40 Large-T antigen retrovirus. To reconstitute mLxrα we transfected Phenix cells with pBabehygro or pBabehygro-mLxra. The resulting supernatant containing the corresponding retroviral particles was used to infect immortalized MEFs. Cells were selected in 800 μg/mL Hygromycin and surviving cells were used. HepG2-LDLR-GFP cells were generated by transfecting HepG2 cells with pEGFP-N1-LDLR and selecting cells with G418 (800 μg/mL).
Primary hepatocytes were isolated and maintained as previously reported (Pei et al. (2006) Nat Med 12: 1048). HEK293T cells were transfected using lipofectamine2000 (invitrogen). […] Under these conditions more than 90% of the cells were transduced as assessed by GFP immunofluorescence. […]
(§1) Total cell or tissue lysates were prepared in RIPA buffer (150 mM NaCl, 1% NP-40, 0.1% Sodium Deoxycholate, 0.1% SDS, 100 mM Tris-HCl, pH 7.4) supplemented with protease inhibitors (Roche Molecular Biochemicals). […] Protein concentration of the cleared lysates was determined using the Bradford assay (Biorad) with BSA as reference. […]

A further assay has as its system HepG2 cells. Put plainly: BODIPY-LDL binding and uptake assay in HepG2 cells. The format is cell-based. As to conditions: 1 μM ligand, FIG. 1A. On the procedure:
HepG2 cells were plated at density of 40,000 cells/well. On the following day the cells were pre-treated for 8 hrs with DMSO, 1 μM GW3965, or 1 μM T0901317 in DMEM supplemented with 10% FBS. MEFs (DKO-mLxra) were plated similarly and infected on the following day with the indicated adenovirus (MOI 300) for 18 hrs. Subsequently, cells were washed twice with PBS and incubated for an additional 16 hrs in sterol deficient medium to induce expression of the LDLR. In experiments with HepG2 cells the sterol deficient medium further contained the LXR synthetic ligands indicated above. Uptake was initiated by incubating cells in 200 μl of serum deficient medium containing 5 μg/mL of BODIPY-LDL. For measuring binding of BODIPY-LDL to cells, plates were placed on ice prior to processing. Uptake of BODIPY-LDL was measured after a 30 minute incubation period at 37° C. At that point cells were washed 2× with PBS containing 0.2% BSA and lysed in 100 μl RIPA buffer supplemented with protease inhibitors. Lysates were collected and cleared by centrifugation and 30 μl of cleared lysate was transferred into a 384 well plate and measured on a Typhoon apparatus (Amersham) with filters set for BODIPY. The protein concentration of the cleared lysates was determined and results are presented as relative fluorescence normalized for protein content.

A further assay relates to Mylip. Put plainly: Mylip expression in vivo after gavage of mice (realtime PCR). Further details: species or system mouse. As to conditions: mice gavaged 20 mg/kg twice daily for three days, FIG. 2C. The procedure:
Total RNA was isolated from cells and mouse tissues using Trizol (Invitrogen). One microgram of total RNA was reverse transcribed with random hexamers using iScript reverse transcription reagents kit (Biorad). Sybergreen (Diagenode) real-time quantitative PCR assays were performed using an Applied Biosystems 7900HT sequence detector.

In a further assay the test system is Mylip LXRE. Put plainly: Mylip promoter (LXRE) reporter assay in HEK293 cells transfected with LXR and RXR. The assay is classed as cell-based, mouse. As to conditions: activation by LXRa and GW3965, functional LXRE, FIG. 6D. On the procedure: A 10 Kb promotor region upstream of the mMylip transcription initiation site was analyzed for the presence of LXR binding elements. A consensus DR4 site was identified 2454 upstream of the transcription initiation site. Olignoucleotides encompassing this element were designed, annealed and tested for binding to LXR/RXR heterodimers in a standard EMSA assay. A 2.5 kB promotor fragment upstream of the transcription initiation site containing the identified LXRE was amplified by PCR from BAC clone RP23-17N24 using mMylip-prom-FWD […] (SEQ ID NO:20) or mMylip-prom-ΔFWD […] (SEQ ID NO:21) with the common antisense primer mMylip-prom-REV […] (SEQ ID NO:22). Amplified fragments were cloned as SacI/XhoI fragments into pGL3 basic (Promega). Promotor analysis was done as previously described (Joseph et al. (2002) J Biol Chem 277: 11019).

In assay [2] the test system is LDLR. Put plainly: LDLR ubiquitination in HEK293 cells co-transfected with LDLR, Mylip and HA-Ubiquitin. The format is cell-based. As to conditions: 25 μM for 6 h, FIG. 3G. On the procedure:
Primary hepatocytes were isolated and maintained as previously reported (Pei et al. (2006) Nat Med 12: 1048). HEK293T cells were transfected using lipofectamine2000 (invitrogen). Typically, 0.8×10^6 cells were seeded in a 60 mm well and transfected the following day with 2 μg DNA. In experiments testing the ability of Mylip to degrade other potential protein targets a ratio of 3:1 (Mylip:target) was used. To infect MEFs and SV589 with adenovirus cells were seeded (0.2×10^6 cells/60 mm well) and infected the following day at an MOI of 300. HepG2 cells were infected at an MOI of 80. Primary hepatocytes were infected 4 hrs after plating at an MOI of 20. Infections were allowed to proceed for 18 hrs after which culture medium was replaced. Under these conditions more than 90% of the cells were transduced as assessed by GFP immunofluorescence. Where indicated, cells were subsequently sterol starved by incubating cells in DMEM supplemented with 10% LPDS, 5 μM Simvastatin, and 100 μM Mevalonic acid for an additional 18 hrs (sterol deficient medium).
as §1

Consider `CC(C)CC[C@@H](O)[C@@H](C)[C@H]1CC[C@H]2[C@@H]3CC=C4C[C@@H](O)CC[C@]4(C)[C@H]3CC[C@]12C` [22(R)-hydroxycholesterol], for which, in the assay with LDLR [1], the LDLR protein entry is on record as “decreased LDLR protein in the absence or presence of LXRs”.
As for `O=C(O)Cc1cccc(OCCCN(Cc2cccc(C(F)(F)F)c2Cl)CC(c2ccccc2)c2ccccc2)c1` [GW3965], the “binding and uptake of bodipy labeled-LDL” value with HepG2 cells is “decreased”. In addition, the LDLR protein result with LDLR [1] was “decreased LDLR only in cells expressing LXRα”. Further, the “Mylip expression in vivo” value with Mylip was “induced”. The “increase in reporter activity” value with Mylip LXRE was roughly 4 fold.
Turning to `CC(C)C[C@@H](C=O)NC(=O)[C@H](CC(C)C)NC(=O)[C@H](CC(C)C)NC(=O)OCc1ccccc1` [MG132] (Cbz-Leu-Leu-Leu-aldehyde), in the assay with LDLR [2], the Mylip expression entry is on record as “greatly stabilizing” and the “Mylip-dependent level of LDLR ubiquitination” value is “did not increase”.
In the case of `O=S(=O)(c1ccccc1)N(CC(F)(F)F)c1ccc(C(O)(C(F)(F)F)C(F)(F)F)cc1` [T0901317], in the assay on HepG2 cells, the “binding and uptake of bodipy labeled-LDL” value was “decreased”.
